Experimental findings from patent publication US20240327417A1, “HETEROCYCLIC COMPOUNDS” (BeiGene Switzerland GmbH, priority 2021, published 2024) are described below.

Assay [1] concerns the target T1, Full length DGKα (D21-10BG, SignalChem) (Homo sapiens, UniProt P23743).
T1 construct: Full length DGKα (D21-10BG, SignalChem); purchased SignalChem D21-10BG
The assay is described as follows: Biochemical DGK IC50 assay (ADP-Glo, lipid micelle substrate), DGKα. Conditions: 7.5 nM enzyme, 140 μM ATP, 80 μM DAG, 1 hour preincubation, 1 hour reaction, room temperature, read-out: IC50s for DGKα. A digest of the protocol:
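Full-length enzyme was assayed by ADP-Glo on DAG/PS lipid micelles at room temperature in HEPES/MgCl2/CaCl2 buffer with BSA, Na3VO4 and Tween-20, using a 1 h reaction and luminescence read-out.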

In assay [2] the target is T2, Full length DGKζ (in-house protein M1-V929) (Homo sapiens, UniProt Q13574).
T2 construct: His (N); TEV cleavage site (N); made in house; host or cells: Sf9 insect cells (baculovirus, Bac-to-Bac)
In words: Biochemical DGK IC50 assay (ADP-Glo, lipid micelle substrate), DGKζ. As to conditions: 0.5 nM enzyme, 140 μM ATP, 80 μM DAG, 1 hour preincubation, 1 hour reaction, room temperature, read-out: IC50s for DGKζ. In a few lines:
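In-house full-length human DGKζ, baculovirus-expressed in Sf9 cells, was assayed with a DAG/PS lipid micelle substrate at room temperature. Buffer was 50 mM HEPES, 10 mM MgCl2, 0.01% BSA, 0.1 mM Na3VO4, 0.005% Tween-20, 0.01 mM CaCl2, with final compound 1.55˜10000 nM or 23.3˜150000 nM.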
(ADP-Glo turns the ADP formed in a reaction into a luminescent signal.)

T1 sequence (P23743 whole entry): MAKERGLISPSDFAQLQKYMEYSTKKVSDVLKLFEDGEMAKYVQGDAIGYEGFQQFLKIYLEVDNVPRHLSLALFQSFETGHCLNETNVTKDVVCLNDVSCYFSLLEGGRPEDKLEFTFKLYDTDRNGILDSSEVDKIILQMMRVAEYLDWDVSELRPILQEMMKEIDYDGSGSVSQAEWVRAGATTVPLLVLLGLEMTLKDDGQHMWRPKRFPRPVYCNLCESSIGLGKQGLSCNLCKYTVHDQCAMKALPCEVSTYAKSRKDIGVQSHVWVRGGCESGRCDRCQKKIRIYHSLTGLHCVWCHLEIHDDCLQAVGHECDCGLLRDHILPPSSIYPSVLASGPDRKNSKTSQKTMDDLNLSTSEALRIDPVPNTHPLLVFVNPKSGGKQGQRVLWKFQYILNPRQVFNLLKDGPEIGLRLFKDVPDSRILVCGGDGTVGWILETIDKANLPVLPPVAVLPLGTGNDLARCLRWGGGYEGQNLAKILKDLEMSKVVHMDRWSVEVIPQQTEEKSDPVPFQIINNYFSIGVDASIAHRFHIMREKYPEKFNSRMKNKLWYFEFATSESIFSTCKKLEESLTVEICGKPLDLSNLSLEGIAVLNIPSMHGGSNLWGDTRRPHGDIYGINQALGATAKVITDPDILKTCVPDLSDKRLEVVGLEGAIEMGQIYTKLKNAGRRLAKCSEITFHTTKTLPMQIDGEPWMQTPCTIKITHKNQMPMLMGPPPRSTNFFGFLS
T2 sequence (Q13574 1-929 isoform Q13574-4): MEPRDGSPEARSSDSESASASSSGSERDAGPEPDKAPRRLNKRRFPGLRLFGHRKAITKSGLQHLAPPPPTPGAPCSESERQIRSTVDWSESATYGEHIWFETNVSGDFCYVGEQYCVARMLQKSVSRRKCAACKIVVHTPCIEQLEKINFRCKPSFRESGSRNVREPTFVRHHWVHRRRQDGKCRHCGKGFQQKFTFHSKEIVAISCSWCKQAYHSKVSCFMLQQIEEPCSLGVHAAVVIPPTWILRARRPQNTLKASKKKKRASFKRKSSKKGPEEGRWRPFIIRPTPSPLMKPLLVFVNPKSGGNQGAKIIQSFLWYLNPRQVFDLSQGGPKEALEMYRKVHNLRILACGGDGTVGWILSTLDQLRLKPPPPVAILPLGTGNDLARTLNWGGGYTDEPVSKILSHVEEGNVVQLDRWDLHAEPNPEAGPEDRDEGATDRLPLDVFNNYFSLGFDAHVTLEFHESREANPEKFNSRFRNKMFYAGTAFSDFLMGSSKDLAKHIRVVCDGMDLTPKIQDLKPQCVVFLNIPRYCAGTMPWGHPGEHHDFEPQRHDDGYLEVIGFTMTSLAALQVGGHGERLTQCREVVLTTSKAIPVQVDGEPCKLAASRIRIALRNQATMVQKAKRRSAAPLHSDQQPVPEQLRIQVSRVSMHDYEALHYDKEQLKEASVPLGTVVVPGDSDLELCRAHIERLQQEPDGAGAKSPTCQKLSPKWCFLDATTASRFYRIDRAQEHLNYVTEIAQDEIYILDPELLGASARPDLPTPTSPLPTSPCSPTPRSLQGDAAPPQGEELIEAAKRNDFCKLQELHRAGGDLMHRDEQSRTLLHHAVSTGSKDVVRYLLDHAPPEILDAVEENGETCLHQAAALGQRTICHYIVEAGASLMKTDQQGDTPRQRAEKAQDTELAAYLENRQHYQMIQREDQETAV

Consider `CC[C@H]1CN(C(C)c2ccc3cc(F)sc3n2)[C@H](CC)CN1c1cc(=O)n(C)n2cc(CC#N)nc12` (single isomer, unassigned) [Compound A105a], for which the results for the IC50 in assay [1] and in assay [2] were 0.195 µM and 0.706 µM, respectively.
`CC[C@H]1CN(C(C)c2ccc3cc(F)sc3n2)[C@H](CC)CN1c1cc(=O)n(C)n2cc(CC#N)nc12` (single isomer, unassigned) [Compound A105b]: the IC50 is 0.0033 µM in assay [1] and 0.048 µM in assay [2].
In the case of `CC[C@@H]1CN(c2cc(=O)n(C)n3cc(CC#N)nc23)[C@@H](COC)CN1C(C)c1ccc2nc(C)sc2n1` (single isomer, unassigned) [Compound A108a], the IC50 in assay [1] was 6.4 µM; in assay [2], above 10 µM.
On the same counts, the results for `CC[C@@H]1CN(c2cc(=O)n(C)n3cc(CC#N)nc23)[C@@H](COC)CN1C(C)c1ccc2nc(C)sc2n1` (single isomer, unassigned) [Compound A108b] are 0.51 µM and 0.182 µM.
In the same order, the values of `CC[C@H]1CN(C(C)c2ccc3nc(C4CC4)sc3n2)[C@H](CC)CN1c1cc(=O)n(C)n2cc(CC#N)nc12` (single isomer, unassigned) [Compound A109a] are 1.49 µM and 1.8 µM.
On the same counts, the results for `CC[C@H]1CN(C(C)c2ccc3nc(C4CC4)sc3n2)[C@H](CC)CN1c1cc(=O)n(C)n2cc(CC#N)nc12` (single isomer, unassigned) [Compound A109b] are 0.113 µM and 0.028 µM.
Regarding `CC[C@H]1CN(C(C)c2ccc3nc(CC4CC4)sc3n2)[C@H](CC)CN1c1cc(=O)n(C)n2cc(CC#N)nc12` (single isomer, unassigned) [Compound A110a], the IC50 in assay [1] was found to be 1.07 µM; in assay [2] it was 1.17 µM.
On the same counts, the results for `CC[C@H]1CN(C(C)c2ccc3nc(CC4CC4)sc3n2)[C@H](CC)CN1c1cc(=O)n(C)n2cc(CC#N)nc12` (single isomer, unassigned) [Compound A110b] are 0.061 µM and 0.015 µM.
On the same counts, the results for `CC[C@H]1CN(C(C)c2ccc3nc(C)sc3n2)[C@H](CC)CN1c1c(C#N)c(=O)n(C)n2cc(CC#N)nc12` (single isomer, unassigned) [Compound A112a] are 0.752 µM and 3.5 µM.
On the same counts, the results for `CC[C@H]1CN(C(C)c2ccc3nc(C)sc3n2)[C@H](CC)CN1c1c(C#N)c(=O)n(C)n2cc(CC#N)nc12` (single isomer, unassigned) [Compound A112b] are 0.06 µM and 0.118 µM.
On to `CC[C@@H]1CN(c2c(C#N)c(=O)n(C)n3cc(CC#N)nc23)[C@@H](C)CN1C(C)c1ccc2nc(C)sc2n1` (single isomer, unassigned) [Compound A113a], for which the IC50 in assay [1] is 0.185 µM; in assay [2], 0.118 µM.
On to `CC[C@@H]1CN(c2c(C#N)c(=O)n(C)n3cc(CC#N)nc23)[C@@H](C)CN1C(C)c1ccc2nc(C)sc2n1` (single isomer, unassigned) [Compound A113b], for which the values for the IC50 in assay [1] and in assay [2] were 0.651 µM and 2.91 µM, respectively.
In the same order, the values of `CC#CCc1cn2c(n1)c(N1C[C@@H](CC)N(C(C)c3ccc4nc(C)sc4n3)C[C@@H]1CC)cc(=O)n2C` (single isomer, unassigned) [Compound A115a] are 0.288 µM and above 10 µM.
With `CC#CCc1cn2c(n1)c(N1C[C@@H](CC)N(C(C)c3ccc4nc(C)sc4n3)C[C@@H]1CC)cc(=O)n2C` (single isomer, unassigned) [Compound A115b], the figures for the IC50 in assay [1] and in assay [2] were 0.0027 µM and 0.049 µM, respectively.
Regarding `CC#CCc1cn2c(n1)c(N1C[C@@H](CC)N(C(C)c3ccc4nc(C)sc4c3F)C[C@@H]1CC)cc(=O)n2C` (single isomer, unassigned) [Compound A116a], the IC50 in assay [1] came to 0.118 µM; in assay [2] it was 0.132 µM.
On the same counts, the results for `CC#CCc1cn2c(n1)c(N1C[C@@H](CC)N(C(C)c3ccc4nc(C)sc4c3F)C[C@@H]1CC)cc(=O)n2C` (single isomer, unassigned) [Compound A116b] are 0.708 µM and above 10 µM.
In the same order, the values of `CC#CCc1cn2c(n1)c(N1C[C@@H](CC)N(C(C)c3ccc4ncsc4c3F)C[C@@H]1CC)cc(=O)n2C` (single isomer, unassigned) [Compound A117a] are 0.022 µM and 0.048 µM.
On the same counts, the results for `CC#CCc1cn2c(n1)c(N1C[C@@H](CC)N(C(C)c3ccc4ncsc4c3F)C[C@@H]1CC)cc(=O)n2C` (single isomer, unassigned) [Compound A117b] are 0.535 µM and 2 µM.
As for `CC[C@H]1CN(C(C)c2ccc3nc(C)sc3c2F)[C@H](C)CN1c1cc(=O)n(C)n2cc(CC#N)nc12` (single isomer, unassigned) [Compound A119a], the results for the IC50 in assay [1] and in assay [2] were 2.05 µM and 1.46 µM, respectively.
Consider `CC[C@H]1CN(C(C)c2ccc3nc(C)sc3c2F)[C@H](C)CN1c1cc(=O)n(C)n2cc(CC#N)nc12` (single isomer, unassigned) [Compound A119b], for which the IC50 turned out to be 0.34 µM in assay [1] and 0.051 µM in assay [2].
For `CC[C@H]1CN(C(C)c2ccc3nc(C)sc3n2)[C@H](C)CN1c1cc(=O)n(C)n2cc(CC#N)nc12` (single isomer, unassigned) [Compound A121b], the IC50 in assay [1] came to 0.05 µM; in assay [2], 0.143 µM.
On the same counts, the results for `CC[C@H]1CN(C(C)c2ccc3nc(C)sc3c2)[C@H](CC)CN1c1cc(=O)n(C)n2cc(C=NOC)nc12` (single isomer, unassigned) [Compound A123a] are 0.269 µM and 4.89 µM.
In the same order, the values of `CC[C@H]1CN(C(C)c2ccc3nc(C)sc3c2)[C@H](CC)CN1c1cc(=O)n(C)n2cc(C=NOC)nc12` (single isomer, unassigned) [Compound A123bc] are 0.131 µM and 2.39 µM.
For the compound `CC[C@H]1CN(C(C)c2ccc3nc(C)sc3c2)[C@H](CC)CN1c1cc(=O)n(C)n2cc(C=NOC)nc12` (single isomer, unassigned) [Compound A123d], the IC50 in assay [1] was 0.749 µM; in assay [2], above 10 µM.
In the same order, the values of `CC[C@H]1CN(C(C)c2ccc3nc(C)sc3n2)[C@H](CC)CN1c1cc(=O)n(C)n2cc(C=NOC)nc12` (single isomer, unassigned) [Compound A124a] are 2 µM and above 10 µM.
In the same order, the values of `CC[C@H]1CN(C(C)c2ccc3nc(C)sc3n2)[C@H](CC)CN1c1cc(=O)n(C)n2cc(C=NOC)nc12` (single isomer, unassigned) [Compound A124bc] are 0.078 µM and 8.1 µM.
On to `CC[C@H]1CN(C(C)c2ccc3nc(C)sc3n2)[C@H](CC)CN1c1cc(=O)n(C)n2cc(C=NOC)nc12` (single isomer, unassigned) [Compound A124d], for which the IC50 amounted to 0.0059 µM in assay [1] and 0.63 µM in assay [2].
In the same order, the values of `CC(c1ccc2nccnc2c1)N1C[C@H](C)N(c2cc(=O)n(C)n3cc(CO)nc23)C[C@H]1C` (stereo partly drawn) [Compound A3, 8-((2S,5R)-2,5-dimethyl-4-(1-(quinoxalin-6-yl)ethyl)piperazin-1-yl)-2-(hydroxymethyl)-5-methylimidazo[1,2-b]pyridazin-6(5H)-one] are 2.3 µM and 9 µM.
In the same order, the values of `COCc1cn2c(n1)c(N1C[C@@H](C)N(C(C)c3ccc4nccnc4c3)C[C@@H]1C)cc(=O)n2C` (stereo partly drawn) [Compound A4, 8-((2S,5R)-2,5-dimethyl-4-(1-(quinoxalin-6-yl)ethyl)piperazin-1-yl)-2-(methoxymethyl)-5-methylimidazo[1,2-b]pyridazin-6(5H)-one] are 4 µM and 0.48 µM.
On the same counts, the results for `COC(C)c1cn2c(n1)c(N1C[C@@H](C)N(C(C)c3ccc4nccnc4c3)C[C@@H]1C)cc(=O)n2C` (stereo partly drawn) [Compound A5, 8-((2S,5R)-2,5-dimethyl-4-(1-(quinoxalin-6-yl)ethyl)piperazin-1-yl)-2-(1-methoxyethyl)-5-methylimidazo[1,2-b]pyridazin-6(5H)-one] are 22 µM and 11 µM.
For `CC(C#N)c1cn2c(n1)c(N1C[C@@H](C)N(C(C)c3ccc4nccnc4c3)C[C@@H]1C)cc(=O)n2C` (stereo partly drawn) [Compound A6, 2-(8-((2S,5R)-2,5-dimethyl-4-(1-(quinoxalin-6-yl)ethyl)piperazin-1-yl)-5-methyl-6-oxo-5,6-dihydroimidazo[1,2-b]pyridazin-2-yl)propanenitrile], the IC50 in assay [1] and in assay [2] was above 10 µM throughout.
Consider `CC(c1ccc2nccnc2c1)N1C[C@H](C)N(c2cc(=O)n(C)n3cc(C[S+](C)[O-])nc23)C[C@H]1C` (stereo partly drawn) [Compound A10, 8-((2S,5R)-2,5-dimethyl-4-(1-(quinoxalin-6-yl)ethyl)piperazin-1-yl)-5-methyl-2-((methylsulfinyl)methyl)imidazo[1,2-b]pyridazin-6(5H)-one], for which the IC50 in assay [1] and in assay [2] was above 10 µM each time.
`CC(c1ccc2nccnc2c1)N1C[C@H](C)N(c2cc(=O)n(C)n3cc(CS(C)(=O)=O)nc23)C[C@H]1C` (stereo partly drawn) [Compound A11, 8-((2S,5R)-2,5-dimethyl-4-(1-(quinoxalin-6-yl)ethyl)piperazin-1-yl)-5-methyl-2-((methylsulfonyl)methyl)imidazo[1,2-b]pyridazin-6(5H)-one]: the IC50 in assay [1] and in assay [2] was above 10 µM in each case.
